These results are taken from patent publication US9611230B2, “1,3,4-oxadiazole benzoic acid compounds and their use for nonsense suppression and the treatment of disease” (PTC Therapeutics, Inc., priority 2004, dated 2017).

Structures are written as SMILES. A value given as a limit tells only on which side of the number the result lay.

With `CCOc1ccc(-c2n[nH]c(-c3cccc(C(=O)O)c3)n2)cc1` [Compound 461], the melting point lay in the range of 295 to 298 °C.
`O=C(O)c1cccc(-c2nc(-c3ccc4c(c3)OCO4)no2)c1` [Compound 510] showed a melting point of 245 to 246 °C.
Molecule `O=C(O)c1cccc(-c2cc(-c3ccc(Br)cc3F)on2)c1` [Compound 482] displayed a melting point of 283.5 to 285 °C.
As to `O=C(O)c1cccc(-c2cc(-c3ccccc3F)on2)c1` [Compound 463], the melting point fell in the range of 221 to 222 °C.
`CN(C)c1cc(-c2nnc(-c3ccc(C(=O)O)cc3)o2)ccn1` [Compound 224] returned a melting point of 240 to 250 °C.
As to `O=C(O)c1ccc(-c2cc(-c3ccccc3F)on2)cc1` [Compound 529], the melting point is 292.5 to 293.5 °C.
The result for `Cc1cccc(-c2cnc(-c3cccc(C(=O)O)c3)o2)c1` [Compound 589] reads 194 to 195 °C; that for `O=C(O)c1cccc(-c2cc(-c3ccc(F)cc3F)no2)c1` [Compound 499], more than 278.5 °C.
Consider `CN(C)C(=O)c1ccc(-c2nnc(-c3cccc(C(=O)O)c3)o2)cc1` [Compound 279], for which the melting point fell in the range of 228 to 235 °C.
The result for `O=C(O)c1cccc(-c2cc(-c3ccc(F)cc3)[nH]n2)c1` [Compound No. 552, 3-[5-(4-fluorophenyl)-1H-pyrazol-3-yl]benzoic acid] reads 270.5 to 272 °C; that for `O=C(O)c1ccc(-c2ncc(-c3cccc(OCc4ccccc4)c3)o2)cc1` [Compound 646], 210 to 211 °C.
`O=C(O)c1cccc(-c2ncc(-c3cccc(Cl)c3)o2)c1` [Compound 583]: the melting point lay in the range of 220 to 222 °C.
The result for `O=C(O)c1ccc(-c2ncc(C#Cc3ccccc3)o2)cc1` [Compound 651] reads 251 to 253 °C; that for `O=C(O)c1ccc(-c2ncc(-c3cc(F)ccc3F)o2)cc1` [Compound 630], 301 to 302 °C.
For `O=C(O)c1ccc(-c2ncc(-c3cccc(F)c3)o2)cc1` [Compound 553] the value was 264 to 265 °C; for `O=C(O)c1ccc(-c2cc(-c3ccc(F)cc3F)on2)cc1` [Compound 531], 317 to 319 °C.
For `O=C(O)c1cccc(-c2cc(-c3ccc(F)cc3)no2)c1` [Compound 504] the value was 273 to 274.5 °C; for `O=C(O)c1ccc(-c2ncc(-c3cccc(F)c3F)o2)cc1` [Compound 549], 295 to 296 °C.
The molecule `CC(C)c1ccc(-c2ncc(-c3cccc(C(=O)O)c3)s2)cc1` [Compound No. 321, 3-[2-(4-isopropylphenyl)thiazol-5-yl]benzoic acid] had a melting point of 237 to 239 °C.
In turn, `O=C(O)c1ccc(-c2ncc(-c3cccc(Cl)c3)o2)cc1` [Compound 556] had a melting point of 272 to 274 °C.
Consider `O=C(O)c1ccc(-c2ncc(-c3cccc(O)c3)o2)cc1` [Compound 648], for which the melting point was in the range of 291 to 292 °C.
The result for `CN(C)c1ccc(-c2nnc(-c3ccccc3C(=O)O)o2)cc1` [Compound 606] reads 197 to 200 °C; that for `O=C(O)c1ccc(-c2ncc(-c3ccc(F)c(F)c3)o2)cc1` [Compound 640], 291 to 292 °C.
The result for `CC(C)c1ccc(-c2nc(-c3cccc(C(=O)O)c3)cs2)cc1` [Compound No. 312, 3-[2-(4-isopropylphenyl)thiazol-4-yl]-benzoic acid] reads 193 to 195 °C; that for `Cc1ccc(-c2n[nH]c(-c3cccc(C(=O)O)c3)n2)cc1` [Compound 457], more than 300 °C; that for `CC(C)c1ccc(-c2ccc(-c3cccc(C(=O)O)c3)s2)cc1` [Compound No. 400, 3-[5-(4-isopropylphenyl)thiophen-2-yl]benzoic acid], 233 to 235 °C.
With `O=C(O)c1cccc(-c2nnc(-c3ccc(N4CCCC4)cc3)o2)c1` [Compound 280], the melting point was 274 to 276 °C.
`CC(C)c1cccc(-c2cnc(-c3cccc(C(=O)O)c3)o2)c1` [Compound 591] showed a melting point of 213 to 215 °C.
For the molecule `O=C(O)c1cccc(-c2nnc(-c3ccc4cc[nH]c4c3)o2)c1` [Compound 317], the melting point was > 290 °C (dec.).
For `Cc1cccc(-c2ccc(-c3nnc(-c4cccc(C(=O)O)c4)o3)cc2)c1` [Compound No. 281, 3-[5-(3′-methylbiphenyl-4-yl)-[1,3,4]oxadiazol-2-yl]benzoic acid] the value was 240 to 242 °C; for `O=C(O)c1ccc(-c2cc(-c3ccc(F)cc3F)no2)cc1` [Compound 538], 324 to 326 °C.
For `O=C(O)c1ccc(-c2ncc(-c3cccc(OC(F)(F)F)c3)o2)cc1` [Compound 542] the value was 284 to 285 °C; for `CCc1ccc(-c2cnc(-c3ccc(C(=O)O)cc3)o2)cc1` [Compound 634], 233 to 234 °C; for `CN(C)c1cccc(-c2nnc(-c3ccccc3C(=O)O)o2)c1` [Compound 609], 71 to 78 °C.
For `O=C(O)c1cccc(-c2nc(-c3ccccc3O)n[nH]2)c1` [Compound 455] the value was more than 300 °C; for `CCOc1ccc(-c2cnc(-c3ccc(C(=O)O)cc3)o2)cc1` [Compound 638], 245 to 246 °C.
For the molecule `CC(C)(C)C1CCC(c2nnc(-c3ccc(C(=O)O)cc3)o2)CC1` (stereo not shown) [Compound 621], the melting point is 258 to 261 °C.
For `COc1ccc(-c2cc(-c3ccc(C(=O)O)cc3)on2)cc1` [Compound 539] the value was 297.5 to 299.5 °C.
The result for `O=C(O)c1ccc(-c2ncc(-c3ccc(OC(F)(F)F)cc3)o2)cc1` [Compound 546] reads 222 to 224 °C; that for `O=C(O)c1cccc(-c2ncc(-c3cccc(F)c3)o2)c1` [Compound 580], 223 to 224.5 °C.
With `COc1ccc(-c2nnc(-c3ccc(C(C)C)cc3)o2)cc1C(=O)O` [Compound 402], the melting point fell in the range of 174 to 177 °C.
The result for `O=C(O)c1cccc(-c2nnc(-c3ccc(Br)nc3)o2)c1` [Compound 293] reads 274 to 275 °C; that for `O=C(O)c1cccc(-c2ncc(-c3ccccc3Cl)o2)c1` [Compound 582], 236 to 237 °C; that for `CN(C)c1ccc(Cc2nnc(-c3cccc(C(=O)O)c3)o2)cc1` [Compound 85], 220 to 222 °C.
The molecule `O=C(O)c1ccc(-c2ncc(-c3cc(F)cc(F)c3)o2)cc1` [Compound 641] gave a melting point of 273 to 274 °C.
The result for `O=C(O)c1cccc(-c2nnc(-c3c[nH]c4ccccc34)o2)c1` [Compound 319] reads 304 to 320 °C; that for `CC(C)c1ccc(-c2cc(-c3cccc(C(=O)O)c3)on2)cc1` [Compound 291], 200 to 212 °C; that for `CC(C)c1ccc(-c2nnc(-c3cccc(C(=O)O)c3)o2)cc1` [Compound 6, 3-[5-(4-isopropylphenyl)-[1,3,4]oxadiazol-2-yl]benzoic acid], 202 to 204 °C.
Molecule `O=C(O)c1ccc(-c2cc(-c3ccc(F)cc3)no2)cc1` [Compound 537] showed a melting point of 322 to 323 °C.
With `O=C(O)c1ccc(-c2nnc(-c3ccccc3)o2)cc1` [Compound 596], the melting point is more than 275 °C.
The result for `O=C(O)c1cccc(-c2nc(-c3ccc(OC(F)(F)F)cc3)no2)c1` [Compound 511] reads 217 to 218 °C; that for `CC(C)(C)c1ccc(-c2cnc(-c3ccc(C(=O)O)cc3)o2)cc1` [Compound 636], 258 to 259 °C; that for `CC(C)c1ccc(NC(=O)Nc2cccc(-c3nnc(-c4ccc(C(=O)O)cc4)o3)c2)cc1` [Compound No. 60, 4-(5-{3-[3-(4-isopropylphenyl)ureido]phenyl}-[1,3,4]oxadiazol-2-yl)benzoic acid], more than 270 °C.
For `O=C(O)c1ccc(-c2ncc(-c3ccc4c(c3)OCO4)o2)cc1` [Compound 557] the value was 269 to 270 °C.
The result for `CS(=O)(=O)Nc1cccc(-c2nnc(-c3ccc(C(=O)O)cc3)o2)c1` [Compound 12] reads more than 270 °C.
Molecule `CC(C)c1ccc(-c2nnc(-c3ccc(C(=O)O)cc3)o2)cc1` [Compound 5] showed a melting point of 262 to 265 °C.
For `O=C(O)c1cccc(-c2nnc(-c3ccc4[nH]ccc4c3)o2)c1` [Compound 316] the value was more than 270 °C; for `O=C(O)c1cccc(-c2nnc(-c3ccc(N4CCOCC4)cc3)o2)c1` [Compound No. 82, 3-[5-(4-morpholin-4-yl-phenyl)-[1,3,4]oxadiazol-2-yl]benzoic acid], 235 to 237 °C; for `COc1ccc(-c2cnc(-c3ccc(C(=O)O)cc3)o2)cc1OC` [Compound 547], 241 to 243 °C.
For `COc1ccc(-c2n[nH]c(-c3cccc(C(=O)O)c3)n2)cc1OC` [Compound 460] the value was 275 to 278 °C.
As for `O=C(O)c1cccc(-c2nc(-c3cccnc3)n[nH]2)c1` [Compound 428], the melting point was more than 310 °C.
The molecule `COc1ccc(-c2noc(-c3cccc(C(=O)O)c3)n2)cc1` [Compound 509] displayed a melting point of 281.5 to 283 °C.
Take `CC(C)c1ccc(-c2cc(-c3cccc(C(=O)O)c3)cs2)cc1` [Compound No. 348, 3-[5-(4-isopropylphenyl)thiophen-3-yl]benzoic acid]: the melting point fell in the range of 208 to 209 °C.
For `COc1ccc(-c2cc(-c3cccc(C(=O)O)c3)on2)cc1` [Compound 500] the value was 246 to 247 °C.
The result for `CC(C)c1ccc(-c2csc(-c3cccc(C(=O)O)c3)n2)cc1` [Compound No. 289, 3-[4-(4-isopropylphenyl)thiazol-2-yl]-benzoic acid] reads 206 to 208 °C; that for `O=C(O)c1cccc(-c2nnc(-c3ccccc3)o2)c1` [Compound 615], 190 to 192 °C.
For `O=C(O)c1cccc(-c2nc(-c3ccccc3F)no2)c1` [Compound No. 506, 3-[3-(2-fluorophenyl)-[1,2,4]oxadiazole-5-yl] benzoic acid] the value was 233 to 234 °C.
